{"source": "paper PMC12290954", "about": "“Synthesis, Characterization, Computational Evaluation, CO-Releasing Properties, and Molecular Docking Interactions of New [Mn(CO)3(bpy)L]PF6‑Type Molecules” (ACS Omega, 2025)", "key": {"[1]": {"system": "deoxymyoglobin", "experiment": "Myoglobin assay, CO release under 365 nm UV light", "details": "365 nm lamp; for [MbCO] / Half-life t 1/2 (50% of total CO release) / Released-CO Equivalent: 15 μM complex, pH 7.4; for [MbCO]: 60 μM myoglobin reduced with sodium dithionite; for Half-life t 1/2 (50% of total CO release) / Released-CO Equivalent: 60 μM myoglobin; for Released-CO Percent: percent of the total CO", "procedure": "The myoglobin solution, which was prepared in PBS (pH 7.4, 0.1 M), was reduced to deoxymyoglobin using sodium dithionite (100 mM). The solutions of each complex ([…]) in DMSO were incubated with deoxymyoglobin solution ([…]), and the final solution was exposed to 365 nm UV light from a distance of 2 cm. Deoxymyoglobin has a band at 557 nm, while carbonmonoxy-myoglobin has two identical bands at 540 and 577 nm, and the changes at these wavelengths make the process observable and determinable. Thus, the CO-releasing properties of the molecules were calculated using the Lambert–Beer Law.\nThe commonly used method for determining the CO-releasing of a molecule is UV–visible spectroscopy. There are various ways for releasing CO from a molecule such as substitution, decomposition, and photoactivation. , Manganese carbonyl complexes are known as photoactivatable CO-releasing molecules (photoCORM). A photoCORM must be stable in the dark while it releases CO upon exposure to light of a certain wavelength. […] The basic principle of the myoglobin assay is based on the formation of carbon monoxymyoglobin with the interaction of deoxymyoglobin with CORMs by the spectrophotometric method. […] A 15 μM solution of the complexes was incubated with a 60 μM myoglobin solution reduced with sodium dithionite in a pH 7.4 buffered medium, and the change was followed by the spectroscopic method. The CO-releasing properties of a molecule could be evaluated from two perspectives: the first is how fast the molecule’s release is, and the second is how high the rate of the releasing is."}, "[2]": {"system": "CT-DNA", "experiment": "DNA binding analysis, UV-vis, Benesi-Hildebrand method", "details": "25 μM DNA, 0-35 μM complex, Tris-HCl pH 7.4, 1 h room temperature, absorbance at 260 nm", "procedure": "DNA-binding properties of the molecules were analyzed with the Benesi–Hildebrand method with UV–vis spectroscopy. The stock solution of manganese complexes (3 mM) was prepared with DMSO, while a fresh stock solution of DNA from commercial CT-DNA was prepared in Tris-HCl buffer solution (pH = 7.4), and the ratio of A 260/A 280 of the DNA stock was recorded as 1.93. A certain concentration of DNA (25 μM) solution was incubated with different amounts of each complex (0, 5, 10, 15, 20, 25, 30, and 35 μM) for 1 h at room temperature. The absorption spectra of all solutions were recorded using a Shimadzu UV-1800 spectrophotometer between 240 and 500 nm.\nIn this study, the DNA-binding affinity of the molecules was also confirmed with a UV–vis spectrophotometer. […] While small fluctuations for 300 μM of each complex were recorded upon the addition of DNA solutions with different concentrations (0, 20, 40, 60, 80, 100, 120, and 140 μM) at 388 nm (Figures S6–S10), remarkable changes were detected at 260 nm, which is characteristic of DNA.\nHere, A o is the absorbance of DNA in the absence of the manganese complex, A obs is the absorbance of DNA at 260 nm with different amounts of the molecules, [M] is the molar concentration of the molecules, and K b is the binding constant. […] These binding constants are moderately available for DNA-target drug candidates."}, "[3]": {"molecular_target": "BSA (Bos taurus, UniProt P02769)", "sequence (P02769 25-607)": "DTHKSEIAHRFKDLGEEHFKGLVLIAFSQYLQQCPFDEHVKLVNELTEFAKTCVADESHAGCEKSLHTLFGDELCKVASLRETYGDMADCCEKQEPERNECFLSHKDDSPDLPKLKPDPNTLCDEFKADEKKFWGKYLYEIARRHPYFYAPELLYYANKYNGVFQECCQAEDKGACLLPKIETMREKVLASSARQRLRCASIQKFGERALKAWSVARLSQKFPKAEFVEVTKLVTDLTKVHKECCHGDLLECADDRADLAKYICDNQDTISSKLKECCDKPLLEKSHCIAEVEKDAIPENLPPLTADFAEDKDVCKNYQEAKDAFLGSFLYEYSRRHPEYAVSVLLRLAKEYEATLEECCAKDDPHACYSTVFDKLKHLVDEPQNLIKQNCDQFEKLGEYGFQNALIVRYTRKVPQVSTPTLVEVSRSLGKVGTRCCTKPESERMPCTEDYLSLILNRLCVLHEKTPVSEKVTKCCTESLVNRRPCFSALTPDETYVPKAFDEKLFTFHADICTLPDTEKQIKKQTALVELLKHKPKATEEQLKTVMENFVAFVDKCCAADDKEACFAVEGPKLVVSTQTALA", "experiment": "BSA binding analysis, UV-vis, Benesi-Hildebrand method", "parameters": "species or system bovine", "details": "15 μM BSA, 0-14 μM complex, PBS pH 7.4, 20 min room temperature, band at 280 nm", "procedure": "BSA binding analysis of the molecules was performed with UV–vis spectroscopy, and the records were evaluated using the Benesi-Hildebrand equation. The BSA stock solution was freshly prepared in phosphate-buffered saline (pH 7.4), while the stock solutions of the molecules were prepared in DMSO. A certain BSA solution (15 μM) was incubated with each molecule at different concentrations (0, 2, 4, 6, 8, 10, 12, and 14 μM) for 20 min at room temperature. The absorption spectra of all solutions were recorded between 250 and 350 nm."}}}
{"compound": "C=CCn1c[n+]([Mn-2]2(=[C]=O)(=[C]=O)(=[C]=O)[n+]3ccccc3-c3cccc[n+]32)c2ccccc21.F[P-](F)(F)(F)(F)F", "note": "[2b, [Mn(CO)3(bpy)(1-allylbenzimidazole)]PF6]", "values": [{"measurement": "[MbCO]", "setting": "[1]", "result": 39.51, "unit": "µM"}, {"measurement": "Half-life t 1/2 (50% of total CO release)", "setting": "[1]", "result": 4.85, "unit": "min"}, {"measurement": "Released-CO Equivalent", "setting": "[1]", "result": 2.63}, {"measurement": "Released-CO Percent", "setting": "[1]", "result": 88, "unit": "%"}, {"measurement": "DNA binding constant K b", "setting": "[2]", "result": "2.2 × 10^4 M^–1"}, {"measurement": "BSA binding constant", "setting": "[3]", "result": "4.3 × 10^4 M^–1"}]}
{"compound": "[Mn(CO)3(bpy)(1-(2-metallyl)benzimidazole)]PF6 [2c]", "values": [{"measurement": "[MbCO]", "setting": "[1]", "result": 39.81, "unit": "µM"}, {"measurement": "Released-CO Equivalent", "setting": "[1]", "result": 2.65}, {"measurement": "Released-CO Percent", "setting": "[1]", "result": 88, "unit": "%"}, {"measurement": "DNA binding constant K b", "setting": "[2]", "result": "1.8 × 10^4 M^–1"}, {"measurement": "BSA binding constant", "setting": "[3]", "result": "4.0 × 10^4 M^–1"}]}
{"compound": "[Mn(CO)3(bpy)(1-(2-vinyloxyethyl)benzimidazole)]PF6 [2e]", "values": [{"measurement": "[MbCO]", "setting": "[1]", "result": 40.41, "unit": "µM"}, {"measurement": "Released-CO Equivalent", "setting": "[1]", "result": 2.69}, {"measurement": "Released-CO Percent", "setting": "[1]", "result": 90, "unit": "%"}, {"measurement": "DNA binding constant K b", "setting": "[2]", "result": "2.7 × 10^4 M^–1"}, {"measurement": "BSA binding constant", "setting": "[3]", "result": "3.9 × 10^4 M^–1"}]}
{"compound": "[Mn(CO)3(bpy)(1-(3,3-dimethylallyl)benzimidazole)]PF6 [2d]", "values": [{"measurement": "[MbCO]", "setting": "[1]", "result": 30.34, "unit": "µM"}, {"measurement": "Released-CO Equivalent", "setting": "[1]", "result": 2.02}, {"measurement": "Released-CO Percent", "setting": "[1]", "result": 67, "unit": "%"}, {"measurement": "DNA binding constant K b", "setting": "[2]", "result": "2.4 × 10^4 M^–1"}, {"measurement": "BSA binding constant", "setting": "[3]", "result": "8.2 × 10^4 M^–1"}]}
{"compound": "[Mn(CO)3(bpy)(1-isopropylbenzimidazole)]PF6 [2a]", "values": [{"measurement": "[MbCO]", "setting": "[1]", "result": 34.64, "unit": "µM"}, {"measurement": "Half-life t 1/2 (50% of total CO release)", "setting": "[1]", "result": 4.02, "unit": "min"}, {"measurement": "Released-CO Equivalent", "setting": "[1]", "result": 2.30}, {"measurement": "Released-CO Percent", "setting": "[1]", "result": 77, "unit": "%"}, {"measurement": "DNA binding constant K b", "setting": "[2]", "result": "3.2 × 10^4 M^–1"}, {"measurement": "BSA binding constant", "setting": "[3]", "result": "3.6 × 10^4 M^–1"}]}
